Reference: patent US11679123B2, “N-acylated hyaluronic acid for hyperuricemia and gouty arthritis” (Queen's University at Kingston, priority 2018, dated 2023)

Assays:
[1] = system: rats with MSU-induced gouty arthritis; experiment: Dose screening on MSU crystals-induced acute gout in rats: ankle swelling ratio; assay type: in vivo, Wistar rats; details: P<0.05
Procedure: 48 male Wistar rats (8 weeks: 180-200 g), purchased from Yisi Experimental Animal Technology Company Ltd, Jilin, China (SCXK (Ji)-2016-0003), were housed in plastic cages and maintained on a 12-h light/12-h dark cycle (lights on 7:00-19:00 h) under standard laboratory conditions of 55% relative humidity and 23° C.±1° C. They were given standard chow and tap water ad libitum. All experimental procedures were approved by the Animal Ethics Committee of Jilin University (Reference NO. 201605).
An experimental model of MSU-induced gouty arthritis was used in order to evaluate the anti-inflammatory activities of BHA similar as previous studies with some modifications. Rats were randomly divided into eight groups (n=6), including control group (NC), model group (MC), 0.3 mg/kg colchicine group (COL), 5 μg BHA group (5BHA), 10 μg BHA group (10BHA), 25 μg BHA group (25BHA), 50 μg BHA group (50BHA), 100 μg BHA group (100BHA). MSU crystals were suspended in 0.9% sterile saline (30 mg/mL) prior to use. Rats in the colchicine group were orally administered colchicine (0.3 mg/kg) for 8 days. At day 6, MSU solution (100 μL of 30 mg/mL) was intra-articular injected at the right ankles of all rats except the NC group m which were injected with saline solution. 5BHA, 10BHA, 25BHA, 50BHA and 100BHA groups received intra-articular injections of 5, 10, 25, 50, or 100 μg BHA along with MSU solution (100 μL of 30 mg/mL MSU solution contains 5, 10, 25, 50 or 100 μg BHA) were administered according to the stated BHA doses.
The right ankle circumference of all rats at 0, 4, 12, 24 and 48 h after MSU injection was measured. The swelling ratio (%) was used for evaluating the gouty arthritis and calculated according to the change of the circumference following the formula: Swelling ratio (%)=(Ct−C0)/C0. Wherein, Ct represented the circumference at t hour and C0 represented the circumference at 0 hour.

xanthine oxidase (XO) = experiment: XO levels in serum and liver of hyperuricemic mice; assay type: in vivo, Balb/C mice
Procedure: Due to the presence of uricase in mice, a hyperuricemic mouse model was established by using uricase inhibitor and large amounts of purine. Mice were randomly divided into five groups (n=10), including the control group (NC), model group (MC), 20 mg/kg of AL (Shimao Tianjie Pharmaceutical Co. Ltd, Jiangsu, China) group, 10 μg BHA group (10BHA) and 50 μg BHA group (50BHA). Oral administration of AL and intraperitoneal injection of BHA were administered according to the required dose, and all mice were gavage fed 20 g/kg yeast extract powder 12 h prior to the administration of AL and BHA except for NC mice for 8 days. From the 6th to 8th day, 1-h prior to AL and BHA administration, 300 mg/kg of OXO (Sigma, USA) was intraperitoneally injected to all of the mice except those in the control group. At 1 h after the final drug administration, blood was sampled from caudal veins of the mice, serum was separated and their livers were quickly collected (FIG. 3A, E). All samples were stored at −80° C. until assay measurements were performed.
The serum UA concentrations and XO levels in the serum and liver were determined with a standard diagnostic kit (MAK077, MAK078 Sigma, USA) according to the manufacturer's instructions.

## N-butyrylated HA [BHA]
[1]; n=6, BHA 5-100 μg intra-articular, at 4 h and 12 h
  swelling of the ankle compared to MSU treated group: significantly suppressed swelling
[1]; n=6, BHA at doses of 10 μg, 50 μg and 100 μg, at 48 h
  swelling of the ankle compared to MSU treated group: significant suppressing of swelling effect
Xanthine oxidase (XO); 10 μg BHA, P<0.05
  reduction of XO levels in the liver compared to untreated mice: 19.78%
Xanthine oxidase (XO); 50 μg BHA
  XO activity in the livers of hyperuricemic mice: no significant effect on XO activity
